According to patent publication US20210300943A1, “OGA INHIBITOR COMPOUNDS” (Janssen Pharmaceutica NV, priority 2018, published 2021):

Legend:
[1] = molecular target: T1, recombinant human Meningioma Expressed Antigen 5 (MGEA5), also referred to as O-GlcNAcase (OGA) (Homo sapiens, UniProt O60502); test: OGA biochemical assay (inhibition of FM-GlcNAc hydrolysis, fluorescence); details: for Emax: read-out: Enzymatic Emax (%); for IC50: read-out: Enzymatic hOGA, pIC50 (converted)
T1 construct: Full length OGA enzyme was purchased at OnGene (cat #TP322411); purchased OnGene (so in the source)
T1 sequence (O60502 1-916): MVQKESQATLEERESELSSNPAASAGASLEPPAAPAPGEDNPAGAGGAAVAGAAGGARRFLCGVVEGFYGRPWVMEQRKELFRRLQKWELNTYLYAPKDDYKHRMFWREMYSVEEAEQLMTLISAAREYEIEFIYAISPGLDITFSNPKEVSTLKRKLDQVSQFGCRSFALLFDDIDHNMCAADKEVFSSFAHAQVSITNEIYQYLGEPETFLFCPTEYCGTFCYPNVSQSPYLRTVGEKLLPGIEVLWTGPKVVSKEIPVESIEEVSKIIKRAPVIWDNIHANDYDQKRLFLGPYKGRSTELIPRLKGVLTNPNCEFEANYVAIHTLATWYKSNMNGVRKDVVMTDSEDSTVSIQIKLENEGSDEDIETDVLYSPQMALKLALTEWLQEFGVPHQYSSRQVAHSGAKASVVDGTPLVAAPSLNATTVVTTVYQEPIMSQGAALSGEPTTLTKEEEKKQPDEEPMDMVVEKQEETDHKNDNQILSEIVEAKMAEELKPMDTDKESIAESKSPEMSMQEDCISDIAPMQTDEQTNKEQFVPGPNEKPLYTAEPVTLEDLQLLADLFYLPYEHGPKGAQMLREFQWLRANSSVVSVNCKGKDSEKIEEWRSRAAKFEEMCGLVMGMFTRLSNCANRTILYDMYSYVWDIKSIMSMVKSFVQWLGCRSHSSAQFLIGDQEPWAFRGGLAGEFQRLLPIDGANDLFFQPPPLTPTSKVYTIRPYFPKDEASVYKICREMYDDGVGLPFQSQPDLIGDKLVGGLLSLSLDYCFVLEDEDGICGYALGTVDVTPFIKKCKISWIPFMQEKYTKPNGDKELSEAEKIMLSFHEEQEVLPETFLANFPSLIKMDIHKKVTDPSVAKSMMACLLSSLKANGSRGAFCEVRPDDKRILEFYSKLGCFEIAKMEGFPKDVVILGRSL
Method in brief: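 Full-length recombinant OGA (2 nM) pre-incubated with compound 60 min at room temperature, then FM-GlcNAc (100 µM final) added in citrate/phosphate buffer pH 7.2 with 0.005% Tween-20. After 6 h at room temperature, stopped with carbonate pH 11.0; fluorescein read at 485/538 nm; IC50 and Hill coefficient from curve fit.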

[2] = molecular target: T2, OGA (Homo sapiens, UniProt O60502); test: OGA cellular assay (ICC detection of O-GlcNAcylated proteins in HEK293 cells inducible for P301L mutant human Tau); type: cell-based; details: for Emax: HEK293, HEK293 cells inducible for P301L mutant human Tau; for EC50: read-out: Cellular hOGA, pEC50 (converted)
T2 construct: endogenous in cells; host or cells: HEK293 cells inducible for P301L mutant human Tau (2N4R)
T2 sequence (O60502 1-916): T1 sequence (O60502 1-916)
Method in brief: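 HEK293 cells inducible for P301L Tau, in low-glucose assay medium, treated 6 h with compound at 0.2% DMSO. O-GlcNAcylated proteins detected by CTD110.6 immunostaining, imaged at 488 nm with Hoechst nuclear counts for toxicity. IC50 from non-linear regression, 200 uM Thiamet G as maximum.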

[3] = maximal effect, Thiamet G 200 uM as maximum
[4] = HEK293 cells inducible for P301L mutant human Tau, 6 hours incubation

Row | Emax ([1]; maximal effect) [%] | IC50 [1] [nM] | Emax [2, 3] [%] | EC50 [2, 4] [nM] | Enzymatic hOGA; pIC50 [1] | Enzymatic Emax (%) ([1]; maximal effect) | Cellular hOGA; pEC50 [2, 4] | Cellular Emax (%) ([2]; HEK293 cells inducible for P301L mutant human Tau, maximal effect, Thiamet G 200 uM as maximum) | SMILES
1 | 101 |  | 88 | 126 |  |  |  |  | Cc1cc(NCC2CCCN(C(C)c3ccc4c(c3)OCC4)C2)cc(C(F)(F)F)n1 (centres unmarked) [Product 36]
2 | 105 | 5.25 | 65 | 25.1 |  |  |  |  | Cc1cc(NCC2CCCN(C(C)c3cc4c(cc3F)OCCO4)C2)cc(C(F)(F)F)n1 (centres unmarked) [Product 99]
3 | 101 | 3.98 | 60 | 631 |  |  |  |  | Cc1cc(OC2CCCN(C(C)c3ccc4c(n3)OCCO4)C2)cc(C)n1 (centres unmarked) [Product 136]
4 | 99 | 6.31 | 79 | 10 |  |  |  |  | Cc1cc(OC[C@H]2CCCN(C(C)c3cnc4c(c3)OCCN4)C2)cc(C)n1 (some centres unmarked) [Product 146]
5 | 102 | 6.31 | 85 | 6.92 |  |  |  |  | Cc1cc(C2CCCN(C(C)c3nc4c(cc3F)OCCO4)C2)cc(C)n1 (centres unmarked) [Product 151]
6 | 102 | 1.58 | 94 | 2.51 |  |  |  |  | Cc1cc(OC[C@H]2CCCN([C@@H](C)c3nc4c(cc3F)OCCO4)C2)cc(C)n1 [Product 153]
7 | 99 | 3.16 | 69 | 31.6 |  |  |  |  | Cc1cc(CO[C@H]2CCCN(C(C)c3nc4c(cc3F)OCCO4)C2)cc(C)n1 (some centres unmarked) [Product 168]

The remaining lines, values behind:

Row | SMILES | Emax ([1]; maximal effect) [%] | IC50 [1] [nM] | Emax [2, 3] [%] | EC50 [2, 4] [nM] | Enzymatic hOGA; pIC50 [1] | Enzymatic Emax (%) ([1]; maximal effect) | Cellular hOGA; pEC50 [2, 4] | Cellular Emax (%) ([2]; HEK293 cells inducible for P301L mutant human Tau, maximal effect, Thiamet G 200 uM as maximum)
8 | COc1cc(NCC2CCCN(C(C)c3ccc4c(c3)OCC4)C2)cc(C)n1 (centres unmarked) [Product 30] | 104 | 7.94 | 81 | 6.31 |  |  |  | 
9 | Cc1cc(C[C@H]2CCCN(Cc3ccc4c(n3)OCCO4)C2)cc(C)n1 [Product 43] | 101 | 63.1 | 60 | 501 |  |  |  | 
10 | Cc1cc(C[C@H]2CCCN(Cc3ccc4c(c3)OCCN4C)C2)cc(C)n1 [Product 48] | 93 | 501 | 5 | > 1000 |  |  |  | 
11 | COc1cc(C[C@H]2CCCN([C@H](C)c3ccc4c(n3)OCCO4)C2)cc(C)n1 [Product 64] | 101 | 3.98 | 97 | 15.8 |  |  |  | 
12 | Cc1cc(C[C@H]2CCCN(C(C)c3cnc4c(c3)OCCO4)C2)cc(C)n1 (some centres unmarked) [Product 130] | 101 | 7.94 | 83 | 158 |  |  |  | 
13 | Cc1cnc(OC2CCCN(C(C)c3ccc4c(n3)OCCO4)C2)c(C)n1 (centres unmarked) [Product 133] | 103 | 15.8 | 62 | 501 |  |  |  | 
14 | Cc1cc(C2CCCN(C(C)c3cnc4c(c3)OCCN4)C2)cc(C)n1 (centres unmarked) [Product 137] | 101 | 20 | 83 | 50.1 |  |  |  | 
15 | Cc1cc(OC2CCCN(C(C)c3ccc4c(n3)OCCO4)C2)cc(C(F)(F)F)n1 (centres unmarked) [Product 138] | 101 | 126 | 16 | > 1000 |  |  |  | 
16 | Cc1cc(OC[C@@H]2CCCN(C(C)c3cnc4c(c3)OCCN4)C2)cc(C)n1 (some centres unmarked) [Product 145] | 99 | 251 | 35 | > 1000 |  |  |  | 
17 | Cc1cc(OC[C@H]2CCCN(C(C)c3cnc4c(c3)OCCN4)C2)cc(C)n1 (some centres unmarked) [Product 147] |  |  |  |  | 8.2 | 100 | 8.0 | 80
18 | Cc1cc(C2CCCN(C(C)c3nc4c(cc3F)CCO4)C2)cc(C)n1 (centres unmarked) [Product 148] | 98 | 15.8 | 78 | 10 |  |  |  | 
19 | Cc1cc(OC[C@H]2CCCN(C(C)c3nc4c(cc3F)OCCO4)C2)cc(C)n1 (some centres unmarked) [Product 152] | 102 | 3.98 | 94 | 3.98 |  |  |  | 
20 | Cc1cc(OC[C@H]2CCCN([C@H](C)c3nc4c(cc3F)OCCO4)C2)cc(C)n1 [Product 154] | 101 | 50.1 | 86 | 126 |  |  |  | 
21 | Cc1cc(NC[C@H]2CCCN(C(C)c3ccc4c(n3)OCCO4)C2)nc(C)n1 (some centres unmarked) [Product 157] | 101 | 5.01 | 83 | 15.8 |  |  |  | 
